Data published in ChEMBL document CHEMBL1156887, “Discovery of olodaterol, a novel inhaled beta2-adrenoceptor agonist with a 24 h bronchodilatory efficacy” (Bioorg Med Chem Lett, 2010).

Experiments:
[1] = Lipophilicity, log D at pH 7.4; assay type: physicochemical; details: buffer
[2] = Apparent permeability from basolateral to apical side in human Caco-2 cells; assay type: ADME, cell-based
[3] = Oral bioavailability in rat; assay type: ADME, organism-based; details: in vivo
[4] = Apparent permeability from apical to basolateral side in human Caco-2 cells; assay type: ADME, cell-based

- logD [1]: 1.2
- Papp B→A [2]: 9 ×10⁻⁶ cm/s
- bioavailability [3]: 3%
- Papp A→B [4]: 0.35 ×10⁻⁶ cm/s
Structure (SMILES): COc1ccc(CC(C)(C)NC[C@H](O)c2cc(O)cc3c2OCC(=O)N3)cc1 [OLODATEROL]
